Measured values published in US4661483A, “Antihypercholesterolemic lactone compounds, compositions and use” (Merck & Co., Inc., priority 1986, dated 1987).

Tested on: HMG-CoA reductase
Assay: HMG-CoA Reductase Inhibition Assay (in vitro, [14C]HMG-CoA to mevalonolactone)
Format: biochemical
Conditions: IC50 compared with that of compactin determined simultaneously; compactin assigned 100 (footnote b60 prints 10); tested as sodium salt of dihydroxy acid form; solubilized rat liver microsomal enzyme
Procedure: The intrinsic HMG-CoA reductase inhibition activity of the claimed compounds is measured in the in vitro protocol published in J. Med. Chem., 28, p. 347-358 (1985) and described below:
Isolation of HMG-CoA Reductase
Male Holtzman Sprague-Dawley rats (225-250 g) were kept on reversed lighting and fed Purina rat chow containing 3% cholestyramine for 7 days preceding their sacrifice by CO2 asphyxiation. Livers were removed 6 hours into the dark cycle and used immediately to prepare microsomes. HMG-CoA reductase was solubilized from the freshly prepared microsome by the method of Heller and Shrewsbury [J. Biol. Chem., 1976, 251, 3815] and purified through the second ammonium sulfate precipitation step as described by Kleinsek et al. [Proc. Natl. Acad. Sci. USA, 1977, 74, 1431]. The enzyme preparation was tested for HMG-CoA reductase potency and diluted with 100 mM phosphate buffer (pH 7.2) so that 100 μl of the enzyme solution, when added to the assay control, gave a value of 50,000-60,000 dpm. The enzyme preparation was stored at -80° C.
HMG-CoA Reductase Inhibition Assay
The assay is essentially the procedure of Shefer et al. [J. Lipid Res., 1972, 13, 402]. The complete assay medium contained the following in a total volume of 0.8 ml: phosphate buffer, pH 7.2, 100 mM; MgCl2, 3 mM; NADP, 3 mM; glucose 6-phosphate, 10 mM; glucose-6-phosphate dehydrogenase, 3 enzyme units; reduced glutathione, 50 mM; HMG-CoA (glutaryl-3-^14 C, New England Nuclear), 0.2 mM (0.1 μCi); and partially purified enzyme stock solution, 100 μL.
Test compounds or compactin (after first being converted to the sodium salt of their dihydroxy acid form in situ by addition of 1N NaOH (1 equivalent) were added to the assay system in 10-μL volumes at multiconcentration levels. After a 40-minute incubation at 37° C. with shaking and exposure to air, the reaction was stopped by the addition of 0.4 mL of 8N HCl. After an additional 30-minute incubation period at 37° C. to ensure the complete lactonization of mevalonic acid to mevalonolactone, 0.2 ml of the mixture was added to an 0.5×5.0 cm column containing 100-200 mesh Bio-Rex 5, chloride form (Bio-Rad), wetted with distilled water, as described by Alberts et al. [J. Proc. Natl. Acad. Sci. U.S.A., 1980, 77, 3957]. The unreacted [^14 C]HMG-CoA was absorbed on the resin and the [^14 C]mevalonolactone was eluted with distilled water (2×1 ml) directly into 7-ml scintillation vials. Five milliliters of Aquasol-2 (New England Nuclear) was added to each vial, and radioactivity was measured in a Packard Tri Carb Prias scintillation counter. IC50 values were determined by plotting percentage inhibition against test compound concentration and fitting a straight line to the resulting data by using the least-squares method. For estimation of relative inhibitory potencies, compactin was assigned a value of 100 and the IC50 value of the test compound was compared with that of compactin determined simultaneously.

`CC1C=C2C=CC(C)C(CCC(O)CC(O)CC(=O)O)C2C(OC(=O)C(C)(C)C(=O)N(C)C)C1` (centres unmarked) was tested, and the “Relative Potency” value was 34.
In the case of `CCN(CC)C(=O)C(C)(C)C(=O)OC1CC(C)C=C2C=CC(C)C(CCC(O)CC(O)CC(=O)O)C21` (centres unmarked), the “Relative Potency” value was 22.
In the case of `CC1C=C2C=CC(C)C(CCC(O)CC(O)CC(=O)O)C2C(OC(=O)C(C)(C)CC(=O)N(C)C)C1` (centres unmarked), the “Relative Potency” value was 16.
With `CNC(=O)C(C)(C)C(=O)OC1CC(C)C=C2C=CC(C)C(CCC(O)CC(O)CC(=O)O)C21` (centres unmarked) the “Relative Potency” value was 13.
For `CC1C=C2C=CC(C)C(CCC(O)CC(O)CC(=O)O)C2C(OC(=O)C(C)(C)C(=O)N2CCOCC2)C1` (centres unmarked), the “Relative Potency” value was 20.
